Values quoted from earlier work as cited in US20200179438A1, “BLOOD GLUCOSE SPIKE SUPPRESSOR, FOOD PRODUCT, AND METHOD FOR PRODUCING BLOOD GLUCOSE SPIKE SUPPRESSOR” (priority 2017, published 2020).

Conditions: for time until HB purity decreases after its increase: oral administration

SMILES	time until HB purity decreases after its increase	HB purity in the blood after oral administration (oral, reached in several minutes)
C[C@@H](O)CC(=O)O [HB, (R)-3-hydroxybutyric acid]	within several hours	–
C[C@@H](O)CCOC(=O)C[C@@H](C)O [KE]	within several hours	several millimolar
